How the values were obtained:
[1] = target: T1, Interleukin-1 receptor-associated kinase 4 (Homo sapiens, UniProt Q9NWZ3); test: Inhibition of IRAK4 (unknown origin) in presence of MBP as substrate by ADP-Glo assay
T1 sequence (Q9NWZ3 whole entry): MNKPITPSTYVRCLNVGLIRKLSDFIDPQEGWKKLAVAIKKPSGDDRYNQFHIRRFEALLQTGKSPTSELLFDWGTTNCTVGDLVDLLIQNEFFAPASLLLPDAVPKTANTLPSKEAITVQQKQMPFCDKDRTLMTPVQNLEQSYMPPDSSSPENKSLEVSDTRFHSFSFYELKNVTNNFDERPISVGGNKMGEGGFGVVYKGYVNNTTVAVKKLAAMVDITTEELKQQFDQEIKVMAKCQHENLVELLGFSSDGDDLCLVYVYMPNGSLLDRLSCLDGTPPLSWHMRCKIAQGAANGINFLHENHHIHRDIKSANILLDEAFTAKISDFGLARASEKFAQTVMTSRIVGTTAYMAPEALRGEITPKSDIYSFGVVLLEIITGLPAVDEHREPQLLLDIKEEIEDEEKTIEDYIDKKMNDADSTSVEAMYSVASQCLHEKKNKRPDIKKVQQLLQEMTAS

[2] = system: THP-1; test: Antiinflammatory activity against human THP-1 cells assessed as inhibition of LPS induced IL-23 production preincubated with compound for 1 hr followed by LPS stimulation and measured after 18 hrs by cell based ELISA method; assay type: functional
[3] = target: T2, Mitogen-activated protein kinase kinase kinase 7 (Homo sapiens, UniProt O43318); test: Inhibition of TAK1 (unknown origin) in presence of MBP as substrate by ADP-Glo assay
T2 sequence (O43318 whole entry): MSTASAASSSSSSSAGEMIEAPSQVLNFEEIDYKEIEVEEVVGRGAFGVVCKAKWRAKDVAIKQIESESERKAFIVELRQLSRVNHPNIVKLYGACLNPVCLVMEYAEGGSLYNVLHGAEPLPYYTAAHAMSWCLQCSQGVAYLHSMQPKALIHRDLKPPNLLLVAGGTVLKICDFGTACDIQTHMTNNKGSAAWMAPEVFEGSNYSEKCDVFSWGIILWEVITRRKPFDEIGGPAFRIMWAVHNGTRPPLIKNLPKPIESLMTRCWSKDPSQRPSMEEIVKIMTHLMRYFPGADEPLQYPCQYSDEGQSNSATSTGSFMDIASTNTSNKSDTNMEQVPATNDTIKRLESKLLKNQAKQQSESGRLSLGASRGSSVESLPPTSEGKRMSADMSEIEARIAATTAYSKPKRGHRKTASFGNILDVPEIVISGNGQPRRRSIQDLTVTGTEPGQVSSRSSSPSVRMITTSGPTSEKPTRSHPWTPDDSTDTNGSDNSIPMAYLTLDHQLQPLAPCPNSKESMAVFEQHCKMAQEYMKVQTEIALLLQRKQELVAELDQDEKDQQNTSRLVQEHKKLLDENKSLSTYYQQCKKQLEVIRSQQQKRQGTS

[4] = Drug concentration in female BALB/c mouse plasma at 75 mg/kg, po incubated for 30 mins followed by IL-1beta administration and measured after 30 mins; assay type: ADME, organism-based; details: time 60 min, read-out: Drug uptake
[5] = system: Mus musculus; test: Antiinflammatory activity in female BALB/c mouse assessed as inhibition of IL-1beta induced IL-6 levels at 75 mg/kg, po for 30 mins followed by IL-1beta administration and measured after 1.5 hrs by ELISA method; assay type: functional; details: time 2 hrs
[6] = system: HUVEC; test: Antiinflammatory activity against HUVEC cells assessed as inhibition of LPS induced IL-6 production measured by ELISA method; assay type: functional, cell-based; details: Homo sapiens
[7] = Antiinflammatory activity against human monocyte derived dendritic cells assessed as inhibition of LPS induced IL-23 production preincubated with compound for 1 hr followed by LPS stimulation and measured after 18 hrs by cell based ELISA method; assay type: functional
[8] = system: HUVEC; test: Antiinflammatory activity against HUVEC cells assessed as inhibition of IL-1beta induced IL-6 production preincubated with compound for 1 hr followed by IL-1beta stimulation and measured after 12 hrs by cell based ELISA method; assay type: functional; details: Homo sapiens
[9] = system: Blood; test: Antiinflammatory activity against human whole blood assessed as inhibition of IL-1beta induced MIP-1beta production preincubated with compound for 1 hr followed by IL-1beta stimulation and measured after 12 hrs by cell based ELISA method; assay type: functional, tissue-based

NC(=O)[C@@H]1[C@H](Nc2nc(Nc3cccc(C(=O)N4CCCC4)c3)ncc2-c2ccncc2)[C@H]2C=C[C@@H]1C2
IC50 [1]: 10 nM | IC50 [2]: 320 nM | IC50 [3]: 230 nM

NC(=O)[C@@H]1[C@H](Nc2nc(Nc3cccc(-c4cnco4)c3)ncc2-c2cccc(F)c2)[C@H]2C=C[C@@H]1C2
IC50 [1]: 25 nM | IC50 [2]: 390 nM | IC50 [3]: 270 nM

NC(=O)[C@@H]1[C@H](Nc2nc(Nc3cccc(C(=O)N4CCCC4)c3)ncc2-c2ccoc2)[C@H]2C=C[C@@H]1C2
IC50 [2]: 40 nM

Cc1cnc(Nc2cccc(C(=O)N3CCCC3)c2)nc1N[C@H]1[C@@H](C(N)=O)[C@@H]2C=C[C@H]1C2
IC50 [2]: 100 nM

N#Cc1ccc(-c2cnc(Nc3cccc(C(=O)N4CCCC4)c3)nc2N[C@H]2[C@@H](C(N)=O)[C@@H]3C=C[C@H]2C3)cc1
IC50 [2]: 190 nM

NC(=O)[C@@H]1[C@H](Nc2nc(Nc3cccc(C(=O)N4CCCC4)c3)ncc2-c2cncc(F)c2)[C@H]2C=C[C@@H]1C2
concentration at 1 h [4]: 2880 ng/mL

NC(=O)[C@@H]1[C@H](Nc2nc(Nc3cccc(C(=O)N4CCCC4)c3)ncc2-c2ccsc2)[C@H]2C=C[C@@H]1C2
IC50 [1]: 5 nM | IC50 [2]: 110 nM | IC50 [3]: 27 nM

CN1CCN(c2ccc(Nc3ncc(-c4cccc(F)c4)c(N[C@H]4[C@@H](C(N)=O)[C@@H]5C=C[C@H]4C5)n3)cn2)CC1
IC50 [1]: 26 nM | IC50 [2]: 240 nM | IC50 [3]: 280 nM

NC(=O)[C@@H]1[C@H](Nc2nc(Nc3ccc(-c4cnco4)cc3)ncc2-c2cccc(F)c2)[C@H]2C=C[C@@H]1C2
IC50 [1]: 37 nM | IC50 [2]: 290 nM | IC50 [3]: 390 nM

NC(=O)[C@@H]1[C@H](Nc2nc(Nc3cccc(C(=O)N4CCCC4)c3)ncc2-c2cccc(F)c2)[C@H]2C=C[C@@H]1C2
IC50 [1]: 4 nM | IC50 [2]: 870 nM | IC50 [3]: 24 nM

NC(=O)[C@@H]1[C@H](Nc2nc(Nc3ccc(C(=O)N4CCCC4)cc3)ncc2-c2cccnc2)[C@H]2C=C[C@@H]1C2
IC50 [1]: 26 nM | IC50 [2]: 230 nM | IC50 [3]: 250 nM

NC(=O)[C@@H]1[C@H](Nc2nc(Nc3cc(F)cc(N4CCOCC4)c3)ncc2-c2cccc(F)c2)[C@H]2C=C[C@@H]1C2
IC50 [1]: 12 nM | IC50 [2]: 250 nM | IC50 [3]: 1000 nM

NC(=O)[C@@H]1[C@H](Nc2nc(Nc3ccc(N4CCOCC4)nc3)ncc2-c2cccc(F)c2)[C@H]2C=C[C@@H]1C2
IC50 [1]: 25 nM | IC50 [2]: 210 nM | IC50 [3]: 450 nM

CN1CCN(c2cc(F)cc(Nc3ncc(-c4cccc(F)c4)c(N[C@H]4[C@@H](C(N)=O)[C@@H]5C=C[C@H]4C5)n3)c2)CC1
IC50 [1]: 18 nM | IC50 [2]: 260 nM | IC50 [3]: 100 nM

NC(=O)[C@@H]1[C@H](Nc2nc(Nc3ccc(OCCN4CCCC4)cc3)ncc2-c2cccnc2)[C@H]2C=C[C@@H]1C2
IC50 [1]: 103 nM | IC50 [2]: 700 nM | IC50 [3]: 380 nM

NC(=O)[C@@H]1[C@H](Nc2nc(Nc3cccc(C(=O)N4CCCC4)c3)ncc2-c2ccccc2)[C@H]2C=C[C@@H]1C2
IC50 [2]: 220 nM | IC50 [3]: 170 nM

NC(=O)[C@@H]1[C@H](Nc2nc(Nc3cccc(C(=O)N4CCCC4)c3)ncc2-c2ccc(F)cc2)[C@H]2C=C[C@@H]1C2
IC50 [2]: 460 nM

CN1CCN(C(=O)c2cccc(Nc3ncc(-c4cccc(F)c4)c(N[C@H]4[C@@H](C(N)=O)[C@@H]5C=C[C@H]4C5)n3)c2)CC1
IC50 [1]: 5 nM | IC50 [2]: 130 nM | IC50 [3]: 48 nM

NC(=O)[C@@H]1[C@H](Nc2nc(Nc3cccc(C(=O)N4CCCC4)c3)ncc2-c2ccccc2F)[C@H]2C=C[C@@H]1C2
IC50 [1]: 11 nM | IC50 [2]: 130 nM

NC(=O)[C@@H]1[C@H](Nc2nc(Nc3cccc(C(=O)N4CCCC4)c3)ncc2C2CC2)[C@H]2C=C[C@@H]1C2
IC50 [2]: 90 nM

Cc1cc(Nc2ncc(-c3cccnc3)c(N[C@H]3[C@@H](C(N)=O)[C@@H]4C=C[C@H]3C4)n2)ccc1OCCN1CCCC1
IC50 [1]: 179 nM | IC50 [2]: 1100 nM | IC50 [3]: 450 nM

NC(=O)[C@@H]1[C@H](Nc2nc(Nc3cccc(C(=O)N4CCOCC4)c3)ncc2-c2cccc(F)c2)[C@H]2C=C[C@@H]1C2
IC50 [1]: 14 nM | IC50 [2]: 220 nM | IC50 [3]: 94 nM

CN1CCN(c2cc(Nc3ncc(-c4cccc(F)c4)c(N[C@H]4[C@@H](C(N)=O)[C@@H]5C=C[C@H]4C5)n3)ccn2)CC1
IC50 [1]: 6 nM | IC50 [2]: 50 nM | IC50 [3]: 120 nM

N#Cc1cccc(-c2cnc(Nc3cccc(C(=O)N4CCCC4)c3)nc2N[C@H]2[C@@H](C(N)=O)[C@@H]3C=C[C@H]2C3)c1
IC50 [2]: 280 nM | IC50 [3]: 100 nM

NC(=O)[C@@H]1[C@H](Nc2nc(Nc3ccnc(N4CCOCC4)c3)ncc2-c2cccc(F)c2)[C@H]2C=C[C@@H]1C2
IC50 [1]: 8 nM | IC50 [2]: 40 nM | IC50 [3]: 160 nM

NC(=O)[C@@H]1[C@H](Nc2nc(Nc3ccnc(N4CCCC4)c3)ncc2-c2cccc(F)c2)[C@H]2C=C[C@@H]1C2
IC50 [1]: 33 nM | IC50 [2]: 280 nM | IC50 [3]: 2400 nM

NC(=O)[C@@H]1[C@H](Nc2nc(Nc3cccc(C(=O)N4CCCC4)c3)ncc2-c2ccnc(F)c2)[C@H]2C=C[C@@H]1C2
inhibition in vivo at 75 mg/kg [5]: 64% | IC50 [6]: 120 nM | concentration at 1 h [4]: 6820 ng/mL | IC50 [7]: 110 nM | IC50 [2]: 100 nM | IC50 [8]: 110 nM | IC50 [9]: 510 nM

NC(=O)[C@@H]1[C@H](Nc2nc(Nc3cccc(C(=O)N4CCCC4)c3)ncc2-c2cccnc2)[C@H]2C=C[C@@H]1C2
IC50 [2]: 320 nM
